Experimental data taken from patent US9474790B2, “Stable, protracted GLP-1/glucagon receptor co-agonists for medical use” (Novo Nordisk A/S, priority 2013, dated 2016).
Numbered stars: 1 amine (or outer) side, 2 acyl side, 3 side chain; on linkers, the order of the positions; unused ones are H or OH. Square brackets hold non-standard residues; d marks the D form. Side chains are listed from the residue outwards. Peptide text beside a SMILES is read from it. * marks the point of attachment. C18 diacid = O=C(O)CCCCCCCCCCCCCCCCC(=O)*; γGlu = O=C(O)[C@H](CCC(=O)[*:2])N[*:1]; AEEA = NCCOCCOCC(=O)O; Aib = CC(C)(N)C(=O)O

Assay: in vivo
Parameters: species or system c57/BL6 mice
Settings: male, c57/BL6, mouse, sc, 10 nmol/kg
Description: The purpose of this assay was to assess the pharmocokinetic profiles of the glucagon derivatives of the invention in mice. The pharmacokinetic profile of glucagon-GLP1 co-agonists was tested in normal male c57/BL6 mice (approximately body weight: 30 grams), in a sparse sampling design with for example 3 mice represented at each time point (for example: t=0.25, 0.5, 1, 3, 6, 10, 24, 30 and 48 hours). The compound was dosed as a single subcutaneous dose of 10 nmol/kg at t=0. The plasma levels of the glucagon-GLP1 co-agonist compounds were determined using an ELISA/LOCI assay (see Example 80 herein). Pharmacokinetic calculations such as half-life (T1/2) maximum concentration (Cmax) and time for maximum concentration (Tmax) of the compounds were determined using the PC based software, Phoenix (WinNonLin version 6.3 from Pharsight, Certara). Samples were analysed for peptide levels using Luminescence Oxygen Channeling Immunoassay (LOCI). The donor beads were coated with streptavidin. Acceptor beads are conjugated with a monoclonal antibody specific to gGlu in the linker (NN454-1F31) while the second monoclonal antibody (1F120) specific for glucagon was biotinylated. Three reactants were combined with the analyte and formed a two-sited immuno-complex. Illumination of the complex released singlet oxygen atoms from the donor beads. They were channeled into the acceptor beads and triggered chemiluminescence which was measured in the EnVision plate reader. The amount of emitted light is proportional to the concentration of peptide. One μL sample/calibrator/control was applied to the wells of 384-well LOCI plates followed by a 15 μL mixture of the antibody-coated acceptor beads (0.5 μg/well) and the biotinylated antibody. The plates were incubated over night at 21-22° C. Following incubation, 30 μL of the streptavidin-coated donorbeads (2 μg/well) was added to each well and incubated for 30 minutes at 21-22° C. The plates were read in an Envision plate reader at 21-22° C. with a filter having a bandwidth of 520-645 nm after excitation by a 680 nm laser. The total measurement time per well was 210 ms including a 70 ms excitation time.

In the case of CC(C)C[C@H](NC(=O)[C@H](CC(C)C)NC(=O)[C@H](Cc1c[nH]c2ccccc12)NC(=O)[C@H](CCC(N)=O)NC(=O)[C@@H](NC(=O)[C@H](Cc1ccccc1)NC(=O)[C@H](CCC(=O)O)NC(=O)[C@H](CCCNC(=N)N)NC(=O)[C@H](C)NC(=O)[C@H](CCCNC(=N)N)NC(=O)[C@H](CCCNC(=N)N)NC(=O)[C@H](CO)NC(=O)[C@H](CC(=O)O)NC(=O)[C@H](CC(C)C)NC(=O)[C@H](Cc1ccc(O)cc1)NC(=O)[C@H](CCCCN)NC(=O)[C@H](CO)NC(=O)[C@H](CC(C)C)NC(=O)[C@H](CC(=O)O)NC(=O)[C@H](CO)NC(=O)[C@@H](NC(=O)[C@H](Cc1ccccc1)NC(=O)[C@@H](NC(=O)CNC(=O)[C@H](CCC(N)=O)NC(=O)C(C)(C)NC(=O)[C@@H](N)Cc1c[nH]cn1)[C@@H](C)O)[C@@H](C)O)C(C)C)C(=O)N[C@@H](CC(N)=O)C(=O)N[C@@H](CCCCNC(=O)CC[C@H](NC(=O)CC[C@H](NC(=O)COCCOCCNC(=O)COCCOCCNC(=O)CC[C@H](NC(=O)CCCCCCCCCCCCCCCCC(=O)O)C(=O)O)C(=O)O)C(=O)O)C(N)=O [Example 12, N^ε29-[(4S)-4-carboxy-4-[[(4S)-4-carboxy-4-[[2-[2-[2-[[2-[2-[2-[[(4S)-4-carboxy-4-(17-carboxyheptadecanoylamino)butanoyl]amino]ethoxy]ethoxy]acetyl]amino]ethoxy]ethoxy]acetyl]amino]butanoyl]amino]butanoyl]-[Aib2,Leu10,Arg20,Glu21,Leu27,Lys29]-Glucagon amide] (H-H[Aib]QGTFTSDLSKYLDSRRAREFVQWLLNK([γGlu-γGlu-AEEA-AEEA-γGlu-C18 diacid])-NH2), the Cmax was 24.4 nM, the Tmax was 3 h and the half-life was 14 h.
For CC(C)C[C@H](NC(=O)[C@H](CC(C)C)NC(=O)[C@H](Cc1c[nH]c2ccccc12)NC(=O)[C@H](CCC(N)=O)NC(=O)[C@@H](NC(=O)[C@H](Cc1ccccc1)NC(=O)[C@H](CCC(=O)O)NC(=O)[C@H](CCC(N)=O)NC(=O)[C@H](C)NC(=O)[C@H](C)NC(=O)[C@H](CCCCN)NC(=O)[C@H](CO)NC(=O)[C@H](CC(=O)O)NC(=O)[C@H](CC(C)C)NC(=O)[C@H](Cc1ccc(O)cc1)NC(=O)[C@H](CCCCN)NC(=O)[C@H](CO)NC(=O)[C@H](CC(C)C)NC(=O)[C@H](CC(=O)O)NC(=O)[C@H](CO)NC(=O)[C@@H](NC(=O)[C@H](Cc1ccccc1)NC(=O)[C@@H](NC(=O)CNC(=O)[C@H](CCC(N)=O)NC(=O)C(C)(C)NC(=O)[C@@H](N)Cc1c[nH]cn1)[C@@H](C)O)[C@@H](C)O)C(C)C)C(=O)N[C@@H](CC(N)=O)C(=O)N[C@@H](CCCCNC(=O)CC[C@H](NC(=O)CC[C@H](NC(=O)COCCOCCNC(=O)COCCOCCNC(=O)CC[C@H](NC(=O)CCCCCCCCCCCCCCCCC(=O)O)C(=O)O)C(=O)O)C(=O)O)C(N)=O [Example 8, N^ε29-[(4S)-4-carboxy-4-[[(4S)-4-carboxy-4-[[2-[2-[2-[[2-[2-[2-[[(4S)-4-carboxy-4-(17-carboxyheptadecanoylamino)butanoyl]amino]ethoxy]ethoxy]acetyl]amino]ethoxy]ethoxy]acetyl]amino]butanoyl]amino]butanoyl]-[Aib2,Leu10,Lys17,Ala18,Glu21,Leu27,Lys29]-Glucagon amide] (H-H[Aib]QGTFTSDLSKYLDSKAAQEFVQWLLNK([γGlu-γGlu-AEEA-AEEA-γGlu-C18 diacid])-NH2; N-terminus assumed), the Cmax was 45 nM, the Tmax was 3 h and the half-life was 23 h.
